Test results as given in patent EP0938474B1, “CYCLOPROPYLINDOLE COMPOUNDS AND THEIR USE AS PRODRUGS” (AUCKLAND UNISERVICES LIMITED, priority 1996, dated 1998).

Tested on: UV4
Test: Cytotoxicity (growth inhibition), 4 h drug exposure, methylene blue staining
Type: cell-based, rodent
Conditions: Cricetulus griseus; UV4 mutant AA8 line defective in excision repair; 4 hours exposure, then three days incubation
Experimental: Compounds of the invention were tested for cytotoxicity against four different cell lines, all of which are widely available in the art. AA8 is a wild type rodent cell line. UV4 is a mutant AA8 cell line defective in excision repair, and hypersensitive to many alkylating agents. EMT6 is a widely-used rodent line. SKOV is a human ovarian cell line.
Cell culture assays were performed in 96-well microtitre trays. Compounds of the invention were added in culture medium, using serial two-fold dilutions to provide duplicate cultures at five different concentrations for each of eight drugs (plus eight controls) per tray. Drugs were dissolved in water or DMSO immediately prior to addition to the cell culture. After 4 hours, drugs were removed by washing cultures three times with fresh medium, and the trays were incubated for a futher three days. Cell density was then determined by staining with methylene blue as described previously (Finlay, G. J., et al, Anal. Biochm. 1984, 139, 272-277) and the IC50 was calculated as the drug concentration providing 50% inhibition of growth relative to the controls.

Structure (SMILES): COc1cc2cc(C(=O)N3CC(COS(C)(=O)=O)c4c3cc(N)c3ccccc43)[nH]c2c(OC)c1OC (stereo not shown) [15o, 5-amino-1-[(methanesulfonyloxy)methyl]-3-[(5,6,7-trimethoxyindol-2-yl)carbonyl]-1,2-dihydro-3H-benz[e]indole]
- IC50: 665 nM
